Test results from patent US4963566A, “Benzimidazolyl-sulfinyl-tetrahydroquinolines” (Otsuka Pharmaceutical Co., Ltd., priority 1986, dated 1990).

Target: T1, H^+ +K^+ ATPase (Sus scrofa, UniProt P19156)
T1 construct: prepared from porcine stomach; from tissue; host or cells: porcine stomach
Assay: H+ +K+ ATPase inhibition (inorganic phosphoric acid release)
Assay type: biochemical
Settings: enzyme prepared from porcine stomach; 30 min with compound at room temperature, pH 6.1; then 30 min at 37° C., pH 7.4, 20 mM KCl
Description: H^+ +K^+ ATPase (adenosine triphosphatase) (amount of protein: 10 μg) prepared from porcine stomach was added to a Pipes-TRIS [i.e. 2-amino-2-(hydroxymethyl)-1,3-propanediol] buffer solution (pH 6.1) containing 2 mM of piperazine N,N'-bis(2-ethanesulfonic acid), and the mixture was let stand at room temperature. A test compound was dissolved in dimethyl formamide, and the mixture was added to said H^+ +K^+ ATPase buffer solution so that the final concentration should be 1% and let stand for reaction for 30 minutes at room temperature. Then a 75 mM Pipes-TRIS buffer (1 ml, pH 7.4) (containing 4 mM MgCl2, 4 mM Na2 ATP, and 20 mM KCl) and a 75 mM Pipes-TRIS buffer (1 ml, pH 7.4) (containing 4 mM MgCl2, and 4 mM Na2 ATP) were added to the solution individually to make two kinds of samples and these samples were presented for reaction for 30 minutes at 37° C. 40% Trichloroacetic acid (0.3 ml) was added to each sample to stop the reaction. The solution were subjected to centrifugal separation (3000 rpm) for 10 minutes, and the supernatant was taken off, then the formed inorganic phosphoric acid was measured by Fiske and Subbarow's method [J. Biol. Chem. vol. 66, 375 (1925)]. The value of deducting the amount of inorganic phosphoric acid taken from the Pipes-Tris buffer not containing 20 mM KCl from that taken from the Pipes-Tris buffer containing 20 mM KCl was calculated in terms of unit protein and unit hour to be defined as an activity index of enzyme. Inhibition level (%) in doses of administration was estimated by control values and activity indices of enzyme, and from the obtained inhibition level (%), IC50 (dose of administration of compounds to inhibit in 50%) was obtained.

T1 sequence (P19156 2-1034 limits assumed): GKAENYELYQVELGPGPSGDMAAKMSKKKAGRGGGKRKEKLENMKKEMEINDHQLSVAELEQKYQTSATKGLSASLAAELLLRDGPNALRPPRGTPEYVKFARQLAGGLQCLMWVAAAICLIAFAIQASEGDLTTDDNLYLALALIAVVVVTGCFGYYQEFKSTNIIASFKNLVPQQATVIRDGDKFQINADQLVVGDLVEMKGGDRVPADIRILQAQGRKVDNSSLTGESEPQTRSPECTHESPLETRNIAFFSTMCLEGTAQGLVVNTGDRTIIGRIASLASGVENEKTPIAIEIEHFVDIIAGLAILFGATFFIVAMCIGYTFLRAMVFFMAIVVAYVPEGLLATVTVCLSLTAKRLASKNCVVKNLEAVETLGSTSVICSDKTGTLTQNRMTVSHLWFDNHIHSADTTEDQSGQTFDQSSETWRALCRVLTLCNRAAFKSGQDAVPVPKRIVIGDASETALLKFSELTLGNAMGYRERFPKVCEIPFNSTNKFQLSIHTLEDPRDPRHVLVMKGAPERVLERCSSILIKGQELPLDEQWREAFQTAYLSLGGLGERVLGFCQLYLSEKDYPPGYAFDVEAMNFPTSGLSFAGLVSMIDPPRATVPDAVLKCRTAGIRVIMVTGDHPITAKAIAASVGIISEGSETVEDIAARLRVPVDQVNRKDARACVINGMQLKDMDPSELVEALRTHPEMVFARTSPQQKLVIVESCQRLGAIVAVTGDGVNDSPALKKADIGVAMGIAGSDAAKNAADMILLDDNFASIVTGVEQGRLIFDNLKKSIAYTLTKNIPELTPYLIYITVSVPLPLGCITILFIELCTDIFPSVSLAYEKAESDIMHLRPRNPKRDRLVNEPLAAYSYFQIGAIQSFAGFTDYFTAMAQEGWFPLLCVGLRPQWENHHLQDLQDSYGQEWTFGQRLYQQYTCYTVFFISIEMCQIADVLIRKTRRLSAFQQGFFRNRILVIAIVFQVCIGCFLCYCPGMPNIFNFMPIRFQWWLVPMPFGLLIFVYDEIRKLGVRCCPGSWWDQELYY
T1 sequence (P18434 whole entry partner): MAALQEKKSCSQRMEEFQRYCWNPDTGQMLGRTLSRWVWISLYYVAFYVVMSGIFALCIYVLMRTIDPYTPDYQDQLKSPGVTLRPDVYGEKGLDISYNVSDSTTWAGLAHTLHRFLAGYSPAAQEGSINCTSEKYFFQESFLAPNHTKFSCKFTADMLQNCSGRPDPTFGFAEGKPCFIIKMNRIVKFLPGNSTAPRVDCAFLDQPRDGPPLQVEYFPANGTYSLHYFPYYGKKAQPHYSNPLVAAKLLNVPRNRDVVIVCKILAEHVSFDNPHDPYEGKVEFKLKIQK

| IC50 | SMILES |
| --- | --- |
| 4.5 µM | CCN1CCC(CO)c2cccc(C[S+]([O-])c3nc4cc(OC)c(F)cc4[nH]3)c21 (centres unmarked) [Test compound No. 63, 1-ethyl-8-(5-fluoro-6-methoxy-2-benzimidazolyl)sulfinylmethyl-4-hydroxymethyl-1,2,3,4-tetrahydroquinoline] |
| 4 µM | CCN1CCC(N(C)C2CC2)c2cccc(C[S+]([O-])c3nc4cc(F)c(OC)cc4[nH]3)c21 (centres unmarked) [Test compound No. 64, 1-ethyl-8-(5-fluoro-6-methoxy-2-benzimidazolyl)sulfinylmethyl-4-(N-methyl-N-cyclopropyl)amino-1,2,3,4-tetrahydroquinoline] |
| 2.8 µM | CCN1CCC(N(C=O)C2CC2)c2cccc(C[S+]([O-])c3nc4cc(F)c(OC)cc4[nH]3)c21 (centres unmarked) [Test compound No. 65, 1-ethyl-8-(5-fluoro-6-methoxy-2-benzimidazolyl)sulfinylmethyl-4-(N-formyl-N-cyclopropyl)amino-1,2,3,4-tetrahydroquinoline] |
| 0.33 µM | CCN1CC(C)(C)C(OC)c2cccc(C[S+]([O-])c3nc4ccc(C)cc4[nH]3)c21 (centres unmarked) [Test compound No. 66, 1-ethyl-8-(5-methyl-2-benzimidazolyl)sulfinylmethyl-4-methoxy-3,3-dimethyl-1,2,3,4-tetrahydroquinoline] |
| 4.9 µM | CCOC(N(C)C1CCN(CC)c2c(C[S+]([O-])c3nc4cc(F)c(OC)cc4[nH]3)cccc21)C(F)(F)F (centres unmarked) [Test compound No. 69, 1-ethyl-8-(5-fluoro-6-methoxy-2-benzimidazolyl)sulfinylmethyl-4-[N-methyl-N-(2,2,2-trifluoro-1ethoxyethyl)]amino-1,2,3,4-tetrahydroquinoline] |
| 3.8 µM | C=CCN(Cc1ccc(OC)cc1)C1CCN(CC)c2c(C[S+]([O-])c3nc4cc(F)c(OC)cc4[nH]3)cccc21 (centres unmarked) [Test compound No. 70, 1-ethyl-8-(5-fluoro-6-methoxy-2-benzimidazolyl)sulfinylmethyl-4-[N-allyl-N-(4-methoxybenzyl)]amino1,2,3,4-tetrahydroquinoline] |
| 5.7 µM | C=CCN(C)C1CCNc2c(C[S+]([O-])c3nc4cc(F)c(OC)cc4[nH]3)cccc21 (centres unmarked) [Test compound No. 71, 8-(5-fluoro-6-methoxy-2-benzimidazolyl)sulfinylmethyl-4-(N-allyl-N-methyl)amino-1,2,3,4-tetrahydroquinoline] |
| 3.3 µM | CCN1CC=C(C(F)(F)F)c2cccc(C[S+]([O-])c3nc4ccccc4[nH]3)c21 (centres unmarked) [Test compound No. 72, 1-ethyl-8-(2-benzimidazolyl)sulfinylmethyl-4-trifluoromethyl-1,2-dihydroquinoline] |
